Values joined by “and” are separate entries in the source; they are usually repeats but may differ in a detail not shown here. Identical values can stand only once.
Key:
wild-type Efl1 = assay: ITC: binding of guanine nucleotides or Sdo1 to wild-type Efl1 (data of ref 6); parameters: species or system Saccharomyces cerevisiae; details: native protein
Efl1 R1086Q P151L = target: T1, Efl1 R1086Q P151L (Saccharomyces cerevisiae, UniProt P53893, P151L/R1086Q); assay: ITC: binding of GTP to double mutant Efl1 R1086Q P151L; details: +Mg^2+
T1 construct: made in house; host or cells: Saccharomyces cerevisiae
T1 sequence (P53893 whole entry P151L/R1086Q): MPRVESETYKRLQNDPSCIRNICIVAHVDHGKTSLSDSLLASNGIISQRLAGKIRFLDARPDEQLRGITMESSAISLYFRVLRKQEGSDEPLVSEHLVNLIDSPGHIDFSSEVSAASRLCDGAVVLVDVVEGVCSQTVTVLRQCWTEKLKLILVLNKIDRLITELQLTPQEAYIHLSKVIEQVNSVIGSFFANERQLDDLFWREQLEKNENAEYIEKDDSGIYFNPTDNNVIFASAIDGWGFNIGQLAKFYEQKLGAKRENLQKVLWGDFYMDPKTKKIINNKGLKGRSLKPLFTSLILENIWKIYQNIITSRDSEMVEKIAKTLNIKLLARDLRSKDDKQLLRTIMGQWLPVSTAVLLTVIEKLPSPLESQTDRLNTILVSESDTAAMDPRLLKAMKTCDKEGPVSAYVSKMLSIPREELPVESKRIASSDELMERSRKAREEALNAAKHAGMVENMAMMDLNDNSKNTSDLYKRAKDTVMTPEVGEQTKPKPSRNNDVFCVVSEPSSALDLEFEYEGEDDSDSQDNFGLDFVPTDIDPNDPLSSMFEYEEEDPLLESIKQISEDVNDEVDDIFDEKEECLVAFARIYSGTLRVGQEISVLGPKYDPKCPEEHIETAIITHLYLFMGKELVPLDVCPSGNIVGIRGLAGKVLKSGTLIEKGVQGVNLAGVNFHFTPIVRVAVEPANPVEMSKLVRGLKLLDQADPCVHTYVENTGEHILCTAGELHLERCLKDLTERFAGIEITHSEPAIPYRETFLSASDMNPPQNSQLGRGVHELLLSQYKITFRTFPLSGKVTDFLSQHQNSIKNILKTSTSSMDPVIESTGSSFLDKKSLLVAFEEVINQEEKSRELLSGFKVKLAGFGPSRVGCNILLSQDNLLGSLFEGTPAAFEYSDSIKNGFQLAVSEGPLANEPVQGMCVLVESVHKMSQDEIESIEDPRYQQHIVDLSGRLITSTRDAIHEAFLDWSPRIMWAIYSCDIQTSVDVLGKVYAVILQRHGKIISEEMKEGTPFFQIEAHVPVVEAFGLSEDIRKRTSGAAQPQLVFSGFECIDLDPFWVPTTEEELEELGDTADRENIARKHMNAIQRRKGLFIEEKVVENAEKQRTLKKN

SMILES: Nc1nc2c(ncn2[C@@H]2O[C@H](COP(=O)(O)OP(=O)(O)OP(=O)(O)O)[C@@H](O)[C@H]2O)c(=O)[nH]1 [GTP]
- overall heat-capacity change to drive the protein into ternary complex GTPase•GTP•Sdo1 (wild-type Efl1): −950 cal mol^−1 K^−1
- -TΔSb (Efl1 R1086Q P151L; 25 °C): -4.8 kcal/mol
- ΔGb (Efl1 R1086Q P151L; 25 °C): -6.5 kcal/mol
- ΔHb (Efl1 R1086Q P151L; 25 °C): -1.7 ± 0.1 kcal/mol
- -TΔSb (Efl1 R1086Q P151L; 30 °C): -4.1 kcal/mol
- Nconfres (number of residues changing conformation, absolute value) (Efl1 R1086Q P151L; 30 °C): 19
- Nconfrotb (number of routable bonds changing conformation, absolute value) (Efl1 R1086Q P151L; 30 °C): 19
- ΔCpconf (Efl1 R1086Q P151L; 30 °C): −195 cal mol^−1 K^−1
- ΔCprb (Efl1 R1086Q P151L; 30 °C): −25 cal mol^−1 K^−1
- ΔGb (Efl1 R1086Q P151L; 30 °C): -6.6 kcal/mol
- ΔHb (Efl1 R1086Q P151L; 30 °C): -2.5 ± 0.1 kcal/mol
- ΔSb (Efl1 R1086Q P151L; 30 °C): 13 cal mol^−1 K^−1
- ΔSconf (Efl1 R1086Q P151L; 30 °C): −31 cal mol^−1 K^−1
- ΔSsolv (Efl1 R1086Q P151L; 30 °C): 53 cal mol^−1 K^−1
- −ΔASAconf (Efl1 R1086Q P151L; 30 °C): 875 Å^2
- -TΔSb (Efl1 R1086Q P151L; 35 °C): -2.8 kcal/mol
- ΔGb (Efl1 R1086Q P151L; 35 °C): -6.7 kcal/mol
- ΔHb (Efl1 R1086Q P151L; 35 °C): -3.9 ± 0.1 kcal/mol
- ΔCpb (Efl1 R1086Q P151L; from ΔHb at 25–35 °C): −220 ± 35 cal mol^−1 K^−1 and −220 cal mol^−1 K^−1
- Kd (Efl1 R1086Q P151L; 25 °C): 18 ± 3 µM
- Kd (Efl1 R1086Q P151L; 30 °C): 17 ± 2 µM
- Kd (Efl1 R1086Q P151L; 35 °C): 18 ± 2 µM

Reference: publication PMC9405973, “Altered Conformational Landscape upon Sensing Guanine Nucleotides in a Disease Mutant of Elongation Factor-like 1 (EFL1) GTPase” (Biomolecules, 2022)
